Data on four molecules can be found in US20250242064A1, “CXCR4-TARGETING COMPOUNDS, AND METHODS OF MAKING AND USING THE SAME” (PROVINCIAL HEALTH SERVICES AUTHORITY, priority 2022, published 2025).

Test [1] concerns the target T1, CXCR4 (Homo sapiens, UniProt P61073). The test is described as follows: Competitive binding assay, [125I]SDF-1α displacement on CHO:CXCR4 cells. Set-up: expressed in transfected cells; host or cells: CHO:CXCR4 cells. The note with it: [125I]SDF-1α 0.01 nM, 1 h at 27° C., read-out: IC50 (nM), binding affinity for hCXCR4. On the procedure:
CHO:CXCR4 cells were seeded at a density of 1×10^5 cells/well in 24-well poly-D-lysine coated plates (Corning BioCoat) and incubated with [^125I]SDF-1α (0.01 nM, PerkinElmer) and competing nonradioactive ligands ([…]). The cells, radioligand, and competing peptides were incubated for 1 h at 27° C. with moderate shaking. Following the incubation period, the supernatant was aspirated, followed by three washes with 1 mL of ice-cold PBS. Cells were harvested with 200 μL of trypsin and counted on a y counter. Data were plotted in GraphPad Prism 7 to determine IC50 values (GraphPad Software, Inc., La Jolla, CA). The values are reported as mean±standard deviation.
Target sequence in this assay (P61073 whole entry): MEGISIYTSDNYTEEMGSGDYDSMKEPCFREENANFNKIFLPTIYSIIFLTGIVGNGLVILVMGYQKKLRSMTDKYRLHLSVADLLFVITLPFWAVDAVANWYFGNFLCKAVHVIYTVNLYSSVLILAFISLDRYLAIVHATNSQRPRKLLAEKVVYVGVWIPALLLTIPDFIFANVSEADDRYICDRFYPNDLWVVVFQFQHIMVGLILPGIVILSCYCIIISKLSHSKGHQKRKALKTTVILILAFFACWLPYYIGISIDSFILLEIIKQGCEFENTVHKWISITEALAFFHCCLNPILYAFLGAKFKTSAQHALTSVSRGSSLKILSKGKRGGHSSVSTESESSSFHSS

Test [2] concerns the target T1, CXCR4. The note with it: reported; read-out: IC50, block of SDF-1a binding to CXCR4; cited from earlier work.
Target sequence in this assay (P61073 whole entry, species assumed): as the sequence (P61073 whole entry) above
The subject of test [3] is non-Hodgkin lymphoma, renal cell carcinoma, lung cancer, colorectal cancer, and breast cancer xenograft models. As to conditions: reported; cited from earlier work.
The subject of test [4] is small cell lung cancer patients. The note with it: reported; cited from earlier work.

Where two headings read alike, the source gives them in different places. Where a SMILES comes first, the peptide text is derived from it. Bridges are numbered along the chain shown (N, C = ends). Side-chain parts run from the residue outwards. [ ]: non-standard residue; d: D form. The star is where a group is joined. X6 = COc1ccc(CCCC(=O)NCCCC[C@H](NC(=O)[C@H](CS(=O)(=O)O)NC(=O)CN2CCN(CC(=O)O)CCN(CC(=O)O)CCN(CC(=O)O)CC2)C(=O)*)cc1; X7 = COc1ccc(CCCC(=O)NCCCC[C@H](NC(=O)CN2CCN(CC(=O)O)CCN(CC(=O)O)CCN(CC(=O)O)CC2)C(=O)*)cc1; DOTA = O=C(O)CN1CCN(CC(=O)O)CCN(CC(=O)*)CCN(CC(=O)O)CC1; Butanoyl(4-(4-MeO-phenyl)) = COc1ccc(CCCC(=O)*)cc1; 2Nal = N[C@@H](Cc1ccc2ccccc2c1)C(=O)O; Lys(iPr) = CC(C)NCCCC[C@H](N)C(=O)O; Cya = N[C@@H](CS(=O)(=O)O)C(=O)O

On to `COc1ccc(CCCC(=O)NCCCC[C@H](NC(=O)CN2CCN(CC(=O)O)CCN(CC(=O)O)CCN(CC(=O)O)CC2)C(=O)N[C@@H](CS(=O)(=O)O)C(=O)NCCCC[C@@H]2NC(=O)CC[C@H](C(=O)N[C@@H](CCCCNC(C)C)C(N)=O)NC(=O)[C@@H](C)NC(=O)[C@H](Cc3ccc4ccccc4c3)NC(=O)[C@@H](CCCNC(=N)N)NC(=O)[C@H](CCCCNC(C)C)NC(=O)[C@H](Cc3ccc(O)cc3)NC2=O)cc1` [BL34L6] (K([Cya-X7])Y[Lys(iPr)][dR][2Nal][dA][dE][Lys(iPr)]-NH2; lactam N-7), for which, at CXCR4 [1], the IC50 lay within 10 to 50 nM.

As for `COc1ccc(CCCC(=O)NCCCC[C@H](NC(=O)[C@H](CS(=O)(=O)O)NC(=O)CN2CCN(CC(=O)O)CCN(CC(=O)O)CCN(CC(=O)O)CC2)C(=O)NCCCC[C@@H]2NC(=O)CC[C@H](C(=O)N[C@@H](CCCCNC(C)C)C(N)=O)NC(=O)[C@@H](C)NC(=O)[C@H](Cc3ccc4ccccc4c3)NC(=O)[C@@H](CCCNC(=N)N)NC(=O)[C@H](CCCCNC(C)C)NC(=O)[C@H](Cc3ccc(O)cc3)NC2=O)cc1` [BL34L7] (K(X6)Y[Lys(iPr)][dR][2Nal][dA][dE][Lys(iPr)]-NH2; lactam N-7), the IC50 at CXCR4 [1] was in the range of 10 to 50 nM.

In the case of `COc1ccc(CCCC(=O)NCCCC[C@H](NC(=O)[C@H](CCCCNC(C)C)NC(=O)[C@H]2CCC(=O)N[C@@H](CCCCNC(=O)[C@H](CS(=O)(=O)O)NC(=O)CN3CCN(CC(=O)O)CCN(CC(=O)O)CCN(CC(=O)O)CC3)C(=O)N[C@@H](Cc3ccc(O)cc3)C(=O)N[C@@H](CCCCNC(C)C)C(=O)N[C@H](CCCNC(=N)N)C(=O)N[C@@H](Cc3ccc4ccccc4c3)C(=O)N[C@H](C)C(=O)N2)C(N)=O)cc1` [BL34L8] (K([Cya-DOTA])Y[Lys(iPr)][dR][2Nal][dA][dE][Lys(iPr)]K(Butanoyl(4-(4-MeO-phenyl)))-NH2; lactam N-7), at CXCR4 [1], the IC50 was over 100 nM.

Take “cyclo[Phe-Tyr-Lys(iPr)-D-Arg-2-Nal-Gly-D-Glu]-Lys(iPr)-NH2 [LY2510924]”: at CXCR4 [2], the IC50 was 0.079 nM. For the same molecule, the “inhibition of growth of xenograft models” value in test [3] is on record as “able to inhibit growth”. Also, the “treatment efficacy with carboplatin/etoposide chemotherapy” value in test [4] is listed as “failed to improve treatment efficacy”.
